Measurements from patent publication US8722633B2, “Glycoside derivatives and uses thereof” (Novartis AG, priority 2011, dated 2014).

Legend:
human SGLT1 = target: T1, human SGLT1 (Homo sapiens, UniProt P13866); experiment: SGLT1 assay: analogous 14C-AMG uptake test with hSGLT1 cDNA expressed in CHO-K1 or HEK293 cells; format: cell-based; settings: n = 1-4
T1 construct: the cDNA for hSGLTI (Genbank Ace. No. NM000343); expressed in transfected cells; host or cells: CHO-K1 or HEK293 cells expressing the hSGLT1 cDNA
T1 sequence (P13866 1-664): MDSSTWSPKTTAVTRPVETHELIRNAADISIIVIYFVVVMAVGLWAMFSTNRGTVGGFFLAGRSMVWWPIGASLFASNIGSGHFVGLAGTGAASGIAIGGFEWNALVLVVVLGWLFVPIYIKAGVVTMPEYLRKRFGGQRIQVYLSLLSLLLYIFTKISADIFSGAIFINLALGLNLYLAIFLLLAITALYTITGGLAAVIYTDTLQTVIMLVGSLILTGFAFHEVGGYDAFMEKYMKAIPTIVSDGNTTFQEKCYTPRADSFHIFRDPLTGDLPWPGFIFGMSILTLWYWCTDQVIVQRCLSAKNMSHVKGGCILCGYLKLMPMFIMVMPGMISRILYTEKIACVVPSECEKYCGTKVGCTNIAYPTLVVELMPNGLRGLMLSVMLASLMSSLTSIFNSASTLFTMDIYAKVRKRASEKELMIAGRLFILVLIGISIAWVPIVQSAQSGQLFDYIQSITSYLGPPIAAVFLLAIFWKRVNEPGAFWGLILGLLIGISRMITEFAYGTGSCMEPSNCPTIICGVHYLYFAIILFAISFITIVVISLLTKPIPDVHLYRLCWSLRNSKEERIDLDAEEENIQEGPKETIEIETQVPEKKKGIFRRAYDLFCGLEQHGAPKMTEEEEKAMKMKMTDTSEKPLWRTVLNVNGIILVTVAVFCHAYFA
Procedure: (§1) The SGLT-2 assay is carried out as follows: CHO-hSGLT2 cells are cultivated in Ham's F12 Medium (BioWhittaker) with 10% foetal calf serum and 250 μg/mL zeocin (Invitrogen), and HEK293-hSGLT2 cells are cultivated in DMEM medium with 10% foetal calf serum and 250 μg/mL zeocin (Invitrogen). The cells are detached from the culture flasks by washing twice with PBS and subsequently treating with trypsin/EDTA. After the addition of cell culture medium the cells are centrifuged, resuspended in culture medium and counted in a Casy cell counter. Then 40,000 cells per well are seeded into a white, 96-well plate coated with poly-D-lysine and incubated overnight at 37° C., 5% CO2. The cells are washed twice with 250 μl of assay buffer (Hanks Balanced Salt Solution, 137 mM NaCl, 5.4 mM KCl, 2.8 mM CaCl2, 1.2 mM MgSO4 and 10 mM HEPES (pH 7.4), 50 μg/mL of gentamycin). 250 μl of assay buffer and 5 μl of test compound are then added to each well and the plate is incubated for a further 15 minutes in the incubator. 5 μl of 10% DMSO are used as the negative control. The reaction is started by adding 5 μl of 14 C— AMG (0.05 μCi) to each well. After 2 hours' incubation at 37° C., 5% CO2, the cells are washed again with 250 μl of PBS […] and then lysed by the addition of 25 μl of 0.1 N NaOH (5 min. at 37° C.). 200 μl of MicroScint20 (Packard) are added to each well and incubation is continued for a further 20 min at 37° C. After this incubation the radioactivity of the ^14C-AMG absorbed is measured in a Topcount (Packard) using a ^14C scintillation program.
To determine the selectivity with respect to human SGLT1 an analogous test is set up in which the cDNA for hSGLTI (Genbank Ace. No. NM000343) instead of hSGLT2 cDNA is expressed in CHO-K1 or HEK293 cells.

[1] = target: T2, human sodium glucose co-transporter 2 (Homo sapiens, UniProt P31639); experiment: SGLT-2 assay: sodium-dependent 14C-AMG uptake in CHO-hSGLT2 or HEK-hSGLT2 cells; format: cell-based; settings: n = 1-4, read-out: SGLT2 IC50 nM (n = 1-4)
T2 construct: expressed in transfected cells; host or cells: CHO-K1 (ATCC CCL-61) or HEK293 (ATCC CRL-1573), stably transfected with pZeoSV carrying the hSGLT2 cDNA
T2 sequence (P31639 1-672): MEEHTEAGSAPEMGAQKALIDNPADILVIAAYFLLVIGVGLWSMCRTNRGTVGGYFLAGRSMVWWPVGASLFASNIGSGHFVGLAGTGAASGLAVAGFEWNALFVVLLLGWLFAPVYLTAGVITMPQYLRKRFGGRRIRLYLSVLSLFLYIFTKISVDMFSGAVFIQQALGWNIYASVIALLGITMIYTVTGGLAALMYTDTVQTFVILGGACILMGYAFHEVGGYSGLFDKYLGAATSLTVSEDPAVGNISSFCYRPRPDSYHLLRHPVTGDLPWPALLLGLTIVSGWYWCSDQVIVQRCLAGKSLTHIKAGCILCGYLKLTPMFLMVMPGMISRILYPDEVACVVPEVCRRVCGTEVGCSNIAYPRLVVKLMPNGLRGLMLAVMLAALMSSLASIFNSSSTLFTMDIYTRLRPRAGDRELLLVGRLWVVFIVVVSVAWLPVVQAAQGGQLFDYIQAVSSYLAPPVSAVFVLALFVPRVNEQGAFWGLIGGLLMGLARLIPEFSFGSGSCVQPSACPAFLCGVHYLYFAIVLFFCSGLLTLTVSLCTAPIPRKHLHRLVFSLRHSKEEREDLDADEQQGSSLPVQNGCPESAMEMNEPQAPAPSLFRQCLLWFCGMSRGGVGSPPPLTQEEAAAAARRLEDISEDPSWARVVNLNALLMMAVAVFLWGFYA
Procedure: These cell lines transport ^14C-labelled alpha-methyl-glucopyranoside (^14C-AMG, Amersham) into the interior of the cell in sodium-dependent manner.
as §1

Structure (SMILES) | IC50 (human SGLT1) [nM] | IC50 [1] [nM]
CSC1O[C@@H](c2ccc(C3CC3)c(Cc3ccc4c(c3)OCCO4)c2)[C@H](O)[C@@H](O)[C@@H]1O (stereo partly drawn) [Example 1, (2S,3R,4R,5S)-2-[4-cyclopropyl-3-(2,3-dihydro-benzo[1,4]dioxin-6-ylmethyl)-phenyl]-6-methylsulfanyl-tetrahydro-pyran-3,4,5-triol] | 0.55 | 0.29
CCc1ccc([C@@H]2O[C@H](SC)[C@@H](O)[C@H](O)[C@H]2O)cc1Cc1ccc2c(c1)OCCO2 [Example 1-1, (2S,3R,4R,5S,6R)-2-[3-(2,3-Dihydro-benzo[1,4]dioxin-6-ylmethyl)-4-ethyl-phenyl]-6-methylsulfanyl-tetrahydropyran-3,4,5-triol] | – | 0.36
CS(=O)(=O)[C@H]1O[C@@H](c2ccc(C3CC3)c(Cc3ccc4c(c3)OCCO4)c2)[C@H](O)[C@@H](O)[C@@H]1O [Example 2, (2S,3R,4R,5S)-2-[4-Cyclopropyl-3-(2,3-dihydro-benzo[1,4]dioxin-6-ylmethyl)-phenyl]-6-methanesulfonyl-tetrahydro-pyran-3,4,5-triol] | 97 | 9.2
CCc1ccc([C@@H]2O[C@H](S(C)(=O)=O)[C@@H](O)[C@H](O)[C@H]2O)cc1Cc1ccc2c(c1)OCCO2 [Example 2-1, (2S,3R,4R,5S,6R)-2-[3-(2,3-Dihydro-benzo[1,4]dioxin-6-ylmethyl)-4-ethyl-phenyl]-6-methanesulfonyl-tetrahydropyran-3,4,5-triol] | 195 | 1.45
